Results taken from patent US20260014192A1, “COMPOSITIONS AND USES THEREOF” (Optibiotix Limited, priority 2022, published 2026).

Assays:
gut microbiome [1] = assay: Non pH-controlled anaerobic faecal cultures: gas production; type: cell-based; settings: 6 donors, FIG. 1A
Method: Non pH-controlled, anaerobic, faecal cultures were investigated to evaluate the rate of gas production and cumulative gas production over 24 h in the presence of each test substrate.
(§1) All carbohydrates were tested in parallel, using the same faecal sample from a healthy donor. Fermentations were repeated using the faecal samples of each of 6 donors. Faeces in the absence of test substrate were used as the negative control in each run.

gut microbiome [2] = assay: pH-controlled anaerobic faecal cultures: organic acid production; type: cell-based; settings: FIG. 3C
Method: pH-controlled, anaerobic, faecal cultures were carried out to evaluate the impact of each test carbohydrate on gut microbiome composition and activity (organic acid production). The test carbohydrates were as follows: Inulin, Fructooligosaccharides (FOS), Xylooligosaccharides (XOS), gentiooligosaccharides (GeOS) and cellobiose.
as §1

O=C[C@H](O)[C@@H](O)[C@H](O[C@@H]1O[C@H](CO)[C@@H](O)[C@H](O)[C@H]1O)[C@H](O)CO [Cellobiose, cellobiose]
rate of gas production (gut microbiome [1]): significantly higher compared to all test substrates
lactate production / accumulation (gut microbiome [2]): high levels
